# Laboratory results from patent US7157453B2, “Urea substituted imidazoquinolines” (3M Innovation Properties Company, priority 1999, dated 2007).
# Experiments:
# [1] = tested on: interferon (α); assay: Cytokine Induction in Human Cells: interferon (α) by ELISA; format: cell-based; conditions: PBMC; human PBMCs, incubated 18 to 24 hours, lowest concentration found to induce interferon
# Text: (§1) An in vitro human blood cell system was used to assess cytokine induction by compounds of the invention. Activity is based on the measurement of interferon and tumor necrosis factor (α) (IFN and TNF, respectively) secreted into culture media as described by Testerman et. al. In “Cytokine Induction by the Immunomodulators Imiquimod and S-27609”, Journal of Leukocyte Biology, 58, 365–372 (September, 1995).
# (§2) Whole blood is collected by venipuncture into EDTA vacutainer tubes from healthy human donors. Peripheral blood mononuclear cells (PBMCs) are separated from whole blood by density gradient centrifugation using Histopaque®-1077 (Sigma Chemicals, St. Louis, Mo.). The PBMCs are suspended at 3–4×10^6 cells/mL in RPMI 1640 medium containing 10% fetal bovine serum, 2 mM L-glutamine and 1% penicillin/streptomycin solution (RPMI complete). The PBMC suspension is added to 48 well flat bottom sterile tissue culture plates (Costar, Cambridge, Mass. or Becton Dickinson Labware, Lincoln Park, N.J.) containing an equal volume of RPMI complete media containing test compound.
# (§3) The compounds are solubilized in dimethyl sulfoxide (DMSO). The DMSO concentration should not exceed a final concentration of 1% for addition to the culture wells.
# (§4) The solution of test compound is added at 60 μM to the first well containing RPMI complete and serial (three fold or ten fold) dilutions are made. The PBMC suspension is then added to the wells in an equal volume, bringing the test compound concentrations to the desired range. The final concentration of PBMC suspension is 1.5–2×10^6 cells/mL. The plates are covered with sterile plastic lids, mixed gently and then incubated for 18 to 24 hours at 37° C. in a 5% carbon dioxide atmosphere.
# (§5) Following incubation the plates are centrifuged for 5–10 minutes at 1000 rpm (˜200×g) at 4° C. The cell culture supernatant is removed with a sterile polypropylene pipet and transferred to sterile polypropylene tubes. Samples are maintained at −30 to −70° C. until analysis. The samples are analyzed for interferon (α) and tumor necrosis factor (α) by ELISA
# Interferon (α) concentration is determined by ELISA using a Human Multi-Species kit from PBL Biomedical Laboratories, New Brunswick, N.J.
# (§6) The table below lists the lowest concentration found to induce interferon and the lowest concentration found to induce tumor necrosis factor for each compound.
# [2] = tested on: tumor necrosis factor (α); assay: Cytokine Induction in Human Cells: tumor necrosis factor (α) by ELISA; format: cell-based; conditions: PBMC; human PBMCs, incubated 18 to 24 hours, lowest concentration found to induce tumor necrosis factor
# Text: as §1, §2, §3, §4, §5
# Tumor necrosis factor (α) (TNF) concentration is determined using ELISA kits available from Genzyme, Cambridge, Mass.; R&D Systems, Minneapolis, Minn.; or Pharmingen, San Diego, Calif.
# as §6
Compound,minimal effective concentration [1],minimal effective concentration [2]
Nc1nc2ccccc2c2c1ncn2CCCCNC(=O)Nc1ccccc1[N+](=O)[O-] [Example 41],1.11 µM,10 µM
Nc1nc2ccccc2c2c1ncn2CCCCNC(=O)Nc1ccc(Br)cc1 [Example 42],> 30 µM,> 30 µM
COC(=O)c1ccccc1NC(=O)NCCCCn1cnc2c(N)nc3ccccc3c21 [Example 43],> 30 µM,> 30 µM
CCOc1ccccc1NC(=O)NCCCCn1cnc2c(N)nc3ccccc3c21 [Example 44],1.11 µM,10 µM
Nc1nc2ccccc2c2c1ncn2CCCCNC(=O)Nc1ccccc1-c1ccccc1 [Example 45],3.33 µM,> 30 µM
Nc1nc2ccccc2c2c1ncn2CCCCNC(=O)Nc1ccccc1C(F)(F)F [Example 46],1.11 µM,3.33 µM
CSc1ccc(NC(=O)NCCCCn2cnc3c(N)nc4ccccc4c32)cc1 [Example 47],3.33 µM,10 µM
Cc1ccccc1NC(=O)NCCCCn1cnc2c(N)nc3ccccc3c21 [Example 48],0.37 µM,3.33 µM
CSc1cccc(NC(=O)NCCCCn2cnc3c(N)nc4ccccc4c32)c1 [Example 49],3.33 µM,3.33 µM
CCCCOC(=O)c1ccc(NC(=O)NCCCCn2cnc3c(N)nc4ccccc4c32)cc1 [Example 50],> 30 µM,> 30 µM
CC(=O)c1ccc(NC(=O)NCCCCn2cnc3c(N)nc4ccccc4c32)cc1 [Example 51],30 µM,30 µM
CCCCNC(=O)NCCCCn1cnc2c(N)nc3ccccc3c21 [Example 52],1.11 µM,10 µM
CCCCc1nc2c(N)nc3ccccc3c2n1CCNC(=O)NC12CC3CC(CC(C3)C1)C2 [Example 53],> 10 µM,10 µM
CCCCc1nc2c(N)nc3ccccc3c2n1CCNC(=O)Nc1ccc(Oc2ccccc2)cc1 [Example 54],> 10 µM,10 µM
CCCCc1nc2c(N)nc3ccccc3c2n1CCNC(=O)NCc1ccccc1 [Example 55],1 µM,1 µM
CCCCc1nc2c(N)nc3ccccc3c2n1CCNC(=O)NCCC [Example 56],1 µM,1 µM
CCCNC(=O)NCCn1c(COCC)nc2c(N)nc3ccccc3c21 [Example 67],1 µM,10 µM
CCCCc1nc2c(N)nc3ccccc3c2n1CCCCNC(=O)NCCC [Example 71],0.001 µM,1 µM
CCCCc1nc2c(N)nc3ccccc3c2n1CCCCNC(=O)N[C@H](C)c1ccccc1 [Example 81],0.01 µM,1 µM
CCCCc1nc2c(N)nc3ccccc3c2n1CCCCNC(=O)N[C@@H](C)c1ccccc1 [Example 82],0.01 µM,0.1 µM
CCCCc1nc2c(N)nc3ccccc3c2n1CCCCNC(=O)NCc1cccc(C)c1 [Example 83],0.1 µM,1 µM
CCCCc1nc2c(N)nc3ccccc3c2n1CCCCNC(=O)NCc1ccc(C)cc1 [Example 84],0.1 µM,1 µM
CCCCc1nc2c(N)nc3ccccc3c2n1CCCCNC(=O)Nc1ccccc1OC [Example 85],0.001 µM,0.1 µM
CCCCc1nc2c(N)nc3ccccc3c2n1CCCCNC(=O)Nc1ccccc1Cl [Example 86],0.1 µM,1 µM
CCCCCCCCNC(=O)NCCCCn1c(CCCC)nc2c(N)nc3ccccc3c21 [Example 87],1 µM,> 10 µM
CCCCc1nc2c(N)nc3ccccc3c2n1CCCCNC(=O)N[C@@H]1C[C@H]1c1ccccc1 [Example 88],0.1 µM,1 µM

Compound,minimal effective concentration [1],minimal effective concentration [2]
CCCCc1nc2c(N)nc3ccccc3c2n1CCCCNC(=O)NCc1ccc(OC)cc1 [Example 89],0.1 µM,10 µM
COCCc1nc2c(N)nc3ccccc3c2n1CCCCNC(=O)NC12CC3CC(CC(C3)C1)C2 [Example 100],0.001 µM,10 µM
CCNC(=O)NCCCCn1c(CCOC)nc2c(N)nc3ccccc3c21 [Example 101],0.01 µM,1 µM
CCCNC(=O)NCCCCn1c(CCOC)nc2c(N)nc3ccccc3c21 [Example 102],0.001 µM,1 µM
CCCCNC(=O)NCCCCn1c(CCOC)nc2c(N)nc3ccccc3c21 [Example 103],0.0001 µM,0.1 µM
COCCc1nc2c(N)nc3ccccc3c2n1CCCCNC(=O)Nc1ccccc1 [Example 104],0.0001 µM,1 µM
COCCc1nc2c(N)nc3ccccc3c2n1CCCCNC(=O)NC1CCCCC1 [Example 105],0.001 µM,1 µM
COCCc1nc2c(N)nc3ccccc3c2n1CCCCNC(=O)Nc1cccc(C)c1 [Example 106],0.0001 µM,1 µM
COCCc1nc2c(N)nc3ccccc3c2n1CCCCNC(=O)Nc1cccc(F)c1 [Example 107],0.0001 µM,1 µM
COCCc1nc2c(N)nc3ccccc3c2n1CCCCNC(=O)Nc1cccc(C#N)c1 [Example 108],0.0001 µM,0.0001 µM
COCCc1nc2c(N)nc3ccccc3c2n1CCCCNC(=O)Nc1ccc(C#N)cc1 [Example 109],0.0001 µM,0.1 µM
COCCc1nc2c(N)nc3ccccc3c2n1CCCCNC(=O)N[C@H](C)c1ccccc1 [Example 110],0.001 µM,1 µM
COCCc1nc2c(N)nc3ccccc3c2n1CCCCNC(=O)N[C@@H](C)c1ccccc1 [Example 111],0.001 µM,1 µM
COCCc1nc2c(N)nc3ccccc3c2n1CCCCNC(=O)Nc1ccccc1Cl [Example 112],0.0001 µM,0.1 µM
COCCc1nc2c(N)nc3ccccc3c2n1CCCCNC(=O)Nc1ccc(Cl)cc1 [Example 113],0.0001 µM,1 µM
COCCc1nc2c(N)nc3ccccc3c2n1CCCCNC(=O)Nc1cccc([N+](=O)[O-])c1 [Example 114],0.0001 µM,0.01 µM
COCCc1nc2c(N)nc3ccccc3c2n1CCCCNC(=O)Nc1ccc([N+](=O)[O-])cc1 [Example 115],0.0001 µM,1 µM
COCCc1nc2c(N)nc3ccccc3c2n1CCCCNC(=O)Nc1cccc(C(F)(F)F)c1 [Example 116],0.0001 µM,1 µM
COCCc1nc2c(N)nc3ccccc3c2n1CCCCNC(=O)Nc1ccc(C(F)(F)F)cc1 [Example 117],10 µM,10 µM
COCCc1nc2c(N)nc3ccccc3c2n1CCCCNC(=O)Nc1c(Cl)cccc1Cl [Example 118],10 µM,10 µM
COCCc1nc2c(N)nc3ccccc3c2n1CCCCNC(=O)Nc1ccccc1Br [Example 119],10 µM,10 µM
COCCc1nc2c(N)nc3ccccc3c2n1CCCCNC(=O)N(C)c1ccccc1 [Example 120],0.0001 µM,0.01 µM
COCCc1nc2c(N)nc3ccccc3c2n1CCCCNC(=O)N1CCOCC1 [Example 121],0.01 µM,10 µM
COCCc1nc2c(N)nc3ccccc3c2n1CCCCNC(=O)N1CCCC1 [Example 122],0.001 µM,1 µM
COCCc1nc2c(N)nc3ccccc3c2n1CCCCNC(=S)Nc1cccnc1 [Example 125],0.0001 µM,10 µM
